Key:
Hepatomes de rat = experiment: Cell growth inhibition, transformed cells: rat hepatomas; format: cell-based
Source text: (§1) Les tableaux 1 et 2 ci-après donnent le résultat de ces tests qui portent sur trois types de cellules transformées. Les chiffres indiqués représentent le pourcentage d'inhibition de la croissance de cellules traitées par des doses de plus en plus fortes de composé 6a (chlorhydrate) par rapport à celles des mêmes cellules non traitées.

NRK LA31 à 33° = experiment: Cell growth inhibition, transformed cells: NRK LA31 at 33°; format: cell-based, rat
Source text: as §1

cellules NRK (normales) = experiment: Growth inhibition in tissue culture, normal NRK cells; format: cell-based; conditions: 6a solutions made by the second method (example 2) compared with product of example 1
[1] = test system: Cellules d'embryon de poulet; experiment: Transformation of chick embryo cells induced by Rous sarcoma virus; format: cell-based
Source text: (§2) Le produit est efficace contre la transformation des cellules d'embryon de poulet induite par le virus du sarcome de ROUS.

[2] = test system: cellules de mélanomes humains M1 DOR; experiment: Complementary in vitro test, dead cells after four days of growth: melanoma M1 DOR; format: cell-based; conditions: untreated 24, 5760 min
carcinome de Lewis = experiment: In vivo tumour growth: Lewis carcinoma in mice; parameters: species or system souris swiss; conditions: 3.10^5 Lewis carcinoma cells; daily 6 mg/kg or 12 mg/kg
Source text: (§3) Deux types de tumeurs ont été utilisés : • - un carcinome de Lewis (sur souris swiss), • - un mélanome DAU d'origine humaine (sur souris nude).
Le test est effectué sur des souris auxquelles 3.10^5 cellules de carcinome de Lewis ont été inoculées.

Cellules HeLa humaines = experiment: Cell growth inhibition, transformed cells: HeLa; format: cell-based
Source text: as §1

[3] = Acute toxicity (DL50) in mice; parameters: species or system souris swiss; conditions: mouse, in vivo, two independent measurements
Protocol: (§4) Les tests dont les résultats sont donnés ci-dessous ont été réalisés avec des solutions du composé 6a (sous forme de chlorhydrate). Dans ces tests, on a étudié l'activité vis à vis de la croissance tumorale (carcinome et mélanome) et la survie de souris swiss auxquelles ont été injectées des quantités variables de cellules d'ascites de Krebs.
Toxicité aigüe : La DL50 du composé 6a (chlorhydrate) déterminée sur ces souris par deux mesures indépendantes est de 60 mg/kg.

[4] = test system: cellules de leucémie L1210; experiment: Survival of mice inoculated with leukaemia L1210 cells; format: in vivo, souris; conditions: 3.10^5 L1210 cells; 6 mg/kg for 7 days
Source text: Une étude a aussi été faite sur des souris auxquelles avaient été inoculées 3.10^5 cellules de leucémie L1210.

[5] = test system: cellules de mélanomes humains M3 DAU; experiment: Complementary in vitro test, dead cells after four days of growth: melanoma M3 DAU; format: cell-based; conditions: untreated 6, 5760 min
Source text: as §1

[6] = test system: Cellules d'embryon de poulet; experiment: Cell growth inhibition, normal cells: chick embryo cells; format: cell-based
[7] = test system: Cellules de la membrane amniotique humaine; experiment: Cell growth inhibition / toxicity, normal cells: human amniotic membrane cells; format: cell-based
[8] = test system: Fibroblastes humains MRC 5; experiment: Cell growth inhibition, normal cells: MRC 5 fibroblasts; format: cell-based
Stability of solutions = format: physicochemical; conditions: concentrated solutions
Source text: Il convient de préciser que les solutions concentrées du produit 6a sont instables. Le produit est conservé sous forme de solutions diluées, par exemple le chlorhydrate peut être conservé en solution aqueuse diluée.

[9] = test system: mélanome DAU d'origine humaine; experiment: In vivo tumour growth: human melanoma DAU in nude mice; parameters: species or system souris nude; souris traitées présentant un retard dans le développement tumoral: unit not given here; conditions: 5.10^5 melanoma DAU cells; 2 x 15 mg/kg on day 1, 2 x 6 mg/kg days 2 to 7; versus untreated controls
Protocol: as §3
Les souris ont reçu une injection de 5.10^5 cellules de mélanome DAU Celles traitées ont reçu : • - 2 x 15 mg/kg le premier jour, • - 2 x 6 mg/kg du deuxième au septième jour.

virus du sarcome de ROUS = experiment: Replication of Rous sarcoma virus; format: cell-based
Source text: as §2

[10] = test system: Cellules de rein de rat NRK B 77; experiment: Cell growth inhibition, transformed cells: NRK B 77; format: cell-based
Source text: as §1

[11] = test system: cellules d'ascites de KREBS (carcinome); experiment: Survival of mice injected with Krebs ascites cells; format: in vivo, souris swiss; parameters: taux de survie: unit not given here
Source text: as §4
Les résultats des tests ont été obtenus principalement à partir de souris' auxquelles ont été injectées des cellules d'ascites de KREBS (carcinome) dont l'origine a été décrite par G. KLEIN et E. KLEIN Cancer Research 1951-11-466.

[12] = test system: clone FAZA 967 de l'hépatome de rat REUBER H 35; experiment: Toxicity on hepatoma clone FAZA 967 (LDH, GOT, GPT assayed in the medium); format: cell-based
[13] = test system: lignées de lymphomes de souris; experiment: In vivo activity against mouse lymphoma lines; conditions: certain mouse lymphoma lines
[14] = concentration 1,5.10^-3 (unit not given)
[15] = concentration 2.10^-3 (unit not given)
[16] = concentration 3.10^-3 (unit not given)
[17] = concentration 4.10^-3 (unit not given)
[18] = concentration 5.10^-3 (unit not given)

CC(C)(N)C#CC=O [composé 6a]
% d'inhibition de la croissance cellulaire (Hepatomes de rat; 2.10^-4 M): 50%
% d'inhibition de la croissance cellulaire (Hepatomes de rat; 6.10^-4 M): 60%
% d'inhibition de la croissance cellulaire (NRK LA31 à 33°; 1.10^-4 M): 0%
% d'inhibition de la croissance cellulaire (NRK LA31 à 33°; 2.10^-4 M): 11%
% d'inhibition de la croissance cellulaire (NRK LA31 à 33°; 4.10^-4 M): 63%
% d'inhibition de la croissance cellulaire (NRK LA31 à 33°; 5.10^-5 M): 0%
% d'inhibition de la croissance cellulaire (NRK LA31 à 33°; 6.10^-4 M): Mort
inhibition de la croissance en culture de tissus (cellules NRK (normales)): activité en tous points comparable à celle observée avec le produit de l'exemple 1
efficacité contre la transformation des cellules induite par le virus du sarcome de ROUS [1]: efficace
% de cellules mortes après quatre jours de croissance [2, 14]: 21%
% de cellules mortes après quatre jours de croissance [2, 15]: 28%
% de cellules mortes après quatre jours de croissance [2, 16]: 24%
% de cellules mortes après quatre jours de croissance [2, 17]: 26%
% de cellules mortes après quatre jours de croissance [2, 18]: 23%
croissance tumorale (carcinome de Lewis): net ralentissement de la croissance tumorale
% d'inhibition de la croissance cellulaire (Cellules HeLa humaines; 1.10^-4 M): 18%
% d'inhibition de la croissance cellulaire (Cellules HeLa humaines; 2.10^-4 M): 36%
% d'inhibition de la croissance cellulaire (Cellules HeLa humaines; 4.10^-4 M): 78%
% d'inhibition de la croissance cellulaire (Cellules HeLa humaines; 5.10^-5 M): 0%
% d'inhibition de la croissance cellulaire (Cellules HeLa humaines; 6.10^-4 M): 91%
LD50 [3]: 60 mg/kg
survie [4]: le même effet que dans le cas du carcinome
% de cellules mortes après quatre jours de croissance [5, 14]: 24%
% de cellules mortes après quatre jours de croissance [5, 15]: 47%
% de cellules mortes après quatre jours de croissance [5, 16]: 92%
% de cellules mortes après quatre jours de croissance [5, 17]: 98%
% de cellules mortes après quatre jours de croissance [5, 18]: 98%
% d'inhibition de la croissance cellulaire ([6]; 1.10^-4 M): 0%
% d'inhibition de la croissance cellulaire ([6]; 2.10^-4 M): 0%
% d'inhibition de la croissance cellulaire ([6]; 4.10^-4 M): 10%
% d'inhibition de la croissance cellulaire ([6]; 5.10^-5 M): 0%
% d'inhibition de la croissance cellulaire ([6]; 6.10^-4 M): 12%
% d'inhibition de la croissance cellulaire ([7]; 6.10^-4 M): 0%
effet sur la croissance et sur la morphologie des cellules ([7]; concentrations de 5.10 et de 10^-4 mole-litre ^-1): aucun effet
% d'inhibition de la croissance cellulaire ([8]; 1.10^-4 M): 0%
% d'inhibition de la croissance cellulaire ([8]; 2.10^-4 M): 0%
% d'inhibition de la croissance cellulaire ([8]; 4.10^-4 M): 0%
% d'inhibition de la croissance cellulaire ([8]; 5.10^-5 M): 0%
% d'inhibition de la croissance cellulaire ([8]; 6.10^-4 M): 18%
stabilité des solutions (Stability of solutions): instables
retard dans le développement tumoral [9]: dizaine
souris traitées présentant un retard dans le développement tumoral [9]: 60
réplication du virus (virus du sarcome de ROUS): n'est pas inhibée
% d'inhibition de la croissance cellulaire ([10]; 1.10^-4 M): 16%
% d'inhibition de la croissance cellulaire ([10]; 2.10^-4 M): 31%
% d'inhibition de la croissance cellulaire ([10]; 4.10^-4 M): 57%
% d'inhibition de la croissance cellulaire ([10]; 5.10^-5 M): 0%
inhibition de la croissance en culture de tissus ([10]; 6a solutions made by the second method (example 2) compared with product of example 1, NRK-B77 (transformées)): activité en tous points comparable à celle observée avec le produit de l'exemple 1
% d'inhibition de la croissance cellulaire ([10]; 6.10^-4 M): 79%
survie ([11]; 5.10^5 cells inoculated, 6 mg/kg for 7 days): provoque un retard dans la mort mais n'augmente pas le taux de survie
taux de survie ([11]; 5.10^5 cells inoculated, 6 mg/kg, treatment of 21 days): ≤ 90
survie ([11]; 5.10^5 cells, 2 x 15 mg/kg on day 1 then 2 x 6 mg/kg the 6 following days, compared with 21-day treatment): Le même effet
survie ([11]; 10 cellules (so in the source), 2 x 15 mg/kg on day 1 then 2 x 6 mg/kg the 6 following days): encore suffisants
survie ([11]; inoculation of 5.10^6 cells, 2 x 15 mg/kg on day 1 then 2 x 6 mg/kg the 6 following days): efficacité est moindre
survie ([11]; inoculation of 10 cellules (so in the source), 6 mg/kg daily for 7 days): guérison complète jusque 6 mois
toxicité du produit, estimée par dosage dans le milieu des enzymes LDH, GOT et GPT [12]: aucune toxicité

CCOC(C#CC(C)(C)N)OCC [composé 9a]
activité in vivo [13]: actif sélectivement

Reference: patent EP0133407A1, “Acetylene derivatives having an enzyme-inhibiting activity, their preparation and their use as medicines” (Etablissement Public dit: CENTRE NATIONAL DE LA RECHERCHE …, priority 1983, dated 1985)
